Laboratory results from patent US5120538A, “Combinations of compounds isolated from curcuma spp as anti-inflammatory agents” (PT Darya-Varia Laboratoria, priority 1990, dated 1992).

Columns and labels:
[1] = tested on: choleretic effect of curcumin; settings: cited from earlier work
cholesterol levels = settings: rats; cited from earlier work
bacteria = settings: in vitro; cited from earlier work
inflammation = settings: cited from earlier work
[2] = tested on: Oedema of right-hind paw induced by injection of 1% carrageenan solution; assay: Carrageenan-induced paw oedema inhibition in rats; format: in vivo, Male inbred albino rats, Wistar derived LMR strain; settings: rat, 0.01 g one hour before induction, controls safflower oil
Description: Male inbred albino rats of the Wistar derived LMR strain, weighing between 140 and 160 grams are used. Each treatment group consists of ten rats. The rats are fasted for one night and weighed the next morning. Oedema is induced in the right-hind paw of each rat by means of an injection of 1% carrageenan solution. Before the injection and each hour after injection, the volume of the right-hind paw is measured. Measurement of the volume is done by dipping the rats paw into a liquid up to a predetermined mark and measuring or weighing the displaced liquid. The apparatus for measuring volume is calibrated against objects with known volumes. Animals in the treatment groups are administered the drug orally once an hour for three hours before induction of oedema. Animals in the control groups are administered either safflower oil or polyethyleneglycol (PEG) one hour before induction. Piroxicam, a known anti-inflammatory agent used as a positive control, is administered one hour before induction.

Structure (SMILES): O=C(C=Cc1ccc(O)cc1)CC(=O)C=Cc1ccc(O)cc1 [Bis-desmethoxycurcumin, dihydroxydicinnamoyl methane]
- choleretic effect of curcumin [1]: inhibit the choleretic effect of curcumin

Structure (SMILES): COc1cc(/C=C/C(=O)CC(=O)/C=C/c2ccc(O)c(OC)c2)ccc1O [Curcumin, diferuloylmethane]
- cholesterol levels (cholesterol levels): lower cholesterol levels
- antibacterial activity (bacteria): antibacterial activity
- anti-inflammatory effects (inflammation): anti-inflammatory effects

Structure (SMILES): CN1C(C(=O)Nc2ccccn2)=C(O)c2ccccc2S1(=O)=O [Piroxicam]
- % Oedema Inhibition over 6 Hr. Period After Induction, 1 hr. ([2]; 1 hr. after induction): 25.9%
- % Oedema Inhibition over 6 Hr. Period After Induction, 2 hr. ([2]; 2 hr. after induction): 49.0%
- % Oedema Inhibition over 6 Hr. Period After Induction, 3 hr. ([2]; 3 hr. after induction): 52.6%
- % Oedema Inhibition over 6 Hr. Period After Induction, 4 hr. ([2]; 4 hr. after induction): 43.4%
- % Oedema Inhibition over 6 Hr. Period After Induction, 5 hr. ([2]; 5 hr. after induction): 41.4%
- % Oedema Inhibition over 6 Hr. Period After Induction, 6 hr. ([2]; 6 hr. after induction): 36.5%
